Assay results published in patent US9359351B2, “Cap/endo dual inhibitors and their use in the treatment, amelioration or prevention of a viral disease” (priority 2014, dated 2016).

Key:
[1] = target: PB2 cap binding domain (CBD) of an avian H5N1 influenza virus (Influenza A virus, UniProt Q9Q0V1); test: biochemical; conditions: Biacore KD
[2] = system: influenza A virus (IAV) A/Aichi/2/68 (H3N2); test: microbe, parasite or virus in culture; format: cell-based, influenza A virus A/Aichi/2/68 (H3N2) on MDCK cells; conditions: H3N2, MDCK; for IC50: 48 h, read-out: CPE IC50; for inhibition at 50 µM: read-out: CPE % inhib
[3] = target: T1, influenza A virus (IAV) PA-Nter fragment (amino acids 1-209) (Influenza A virus, UniProt P31343); test: biochemical; conditions: FRET IC50
T1 construct: PA-Nter fragment (amino acids 1-209); made in house

[4] = target: whole RNP complex, IAV strain A/PR/8/34 (Influenza A virus, UniProt P03428+P03433); test: biochemical

PB2 cap binding domain (CBD) of an avian H5N1 influenza virus, sequence (Q9Q0V1 318-483 limits assumed): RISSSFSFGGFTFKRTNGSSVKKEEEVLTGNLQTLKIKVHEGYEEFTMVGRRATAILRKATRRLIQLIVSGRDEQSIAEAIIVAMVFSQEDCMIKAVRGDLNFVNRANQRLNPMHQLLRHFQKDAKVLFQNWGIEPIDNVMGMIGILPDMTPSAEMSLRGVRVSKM

| Structure (SMILES) | Kd [1] [µM] | IC50 [2] [µM] | IC50 [3] [µM] | IC50 [4] [µM] | inhibition at 50 µM [2] [%] |
| --- | --- | --- | --- | --- | --- |
| CC(C)N1CCn2c(CNc3nccc4[nH]ncc34)cc(=O)c(O)c2C1=O | > 100 | > 50 | 0.4 |  |  |
| CC(C)N1CCn2c(CNc3cccc4n[nH]c(=O)n34)cc(=O)c(O)c2C1=O | 99.3 | > 50 | 0.936 |  |  |
| CC(C)N1CCn2c(CNc3cc4[nH]ncc4c(Cl)n3)cc(=O)c(O)c2C1=O | 305 | > 50 | 0.848 |  |  |
| CC(C)N1CCn2c(CNCCNc3nccc4[nH]ncc34)cc(=O)c(O)c2C1=O |  | > 50 | 1.46 |  |  |
| CC(C)N1CCn2c(CNCCNc3cc4[nH]ccc4c(Cl)n3)cc(=O)c(O)c2C1=O |  | > 50 | 0.58 |  |  |
| CC(C)N1CCn2c(CNC(=O)c3ccc4n[nH]c(=O)n4c3)cc(=O)c(O)c2C1=O | 187 | > 50 | 0.87 |  |  |
| CC(C)N1CCn2c(CNC(=O)c3cccn4c(=O)[nH]nc34)cc(=O)c(O)c2C1=O | > 50 | > 50 | 0.28 |  |  |
| CC(C)[C@H](NC(=O)c1cccn2c(=O)[nH]nc12)c1cc(=O)c(O)c2n1CCN(C(C)C)C2=O | 163 | > 50 | 0.83 |  |  |
| CC(C)N1CCn2c(CNC(=O)[C@H](Cc3cccc(Cl)c3)NC(=O)c3cccn4c(=O)[nH]nc34)cc(=O)c(O)c2C1=O | 475 | 31.2 | 0.291 |  |  |
| CCC(NC(=O)c1cccn2c(=O)[nH]nc12)C(=O)NCc1cc(=O)c(O)c2n1CCN(C(C)C)C2=O (stereo not shown) | 6.3 | > 50 | 0.43 |  |  |
| CC(C)N1CCn2c(CNC(=O)C3(NC(=O)c4cccn5c(=O)[nH]nc45)CCCCC3)cc(=O)c(O)c2C1=O | > 25 | > 50 | 2.84 |  |  |
| CC(C)N1CCn2c(CNC(=O)CNC(=O)c3ccc4n[nH]c(=O)n4c3)cc(=O)c(O)c2C1=O | 14.1 | > 50 | 1.94 |  |  |
| CC(C)N1CCn2c(CNC(=O)[C@H](NC(=O)c3cccn4c(=O)[nH]nc34)c3ccccc3)cc(=O)c(O)c2C1=O | > 100 | > 50 | 9.87 |  |  |
| CC(C)N1CCn2c(CNC(=O)c3cccc(NC(=O)c4ccc5n[nH]c(=O)n5c4)c3)cc(=O)c(O)c2C1=O | 21.9 | 35.1 | 1.66 |  |  |
| CC(C)N1CCn2c(CNC(=O)[C@@H](Cc3cccc(Cl)c3)NC(=O)c3ccc4n[nH]c(=O)n4c3)cc(=O)c(O)c2C1=O | > 100 | 51.7 | 2.88 |  |  |
| CC(C)N1CCn2c(CNC(=O)c3cccc(Nc4nccc5[nH]ncc45)c3)cc(=O)c(O)c2C1=O | 97.6 | 21.8 | 0.55 |  |  |
| CC(C)N1CCn2c(CNC(=O)[C@H](NC(=O)c3ccc4n[nH]c(=O)n4c3)c3ccccc3)cc(=O)c(O)c2C1=O | > 100 | > 50 | 1.45 |  |  |
| CC(C)N1CCn2c(CNC(=O)c3n[nH]c4ncccc34)cc(=O)c(O)c2C1=O | > 100 | > 50 | 0.4 |  |  |
| CC(C)N1CCn2c(CNC(=O)[C@@H](Cc3cccc(Cl)c3)NC(=O)c3n[nH]c4ncccc34)cc(=O)c(O)c2C1=O | 55.1 | > 50 | 1.09 |  |  |
| CC(C)N1CCn2c(CNCCOC(=O)c3cccn4c(=O)[nH]nc34)cc(=O)c(O)c2C1=O | > 100 | > 50 | 1.41 |  |  |
| CC(C)N1CCn2c(COC(=O)c3cccn4c(=O)[nH]nc34)cc(=O)c(O)c2C1=O | > 100 | > 50 | 0.41 |  |  |
| CC(C)N1CCn2c(COCCOc3nccc4[nH]ncc34)cc(=O)c(O)c2C1=O | > 100 | > 50 | 0.37 |  |  |

| Structure (SMILES) | Kd [1] [µM] | IC50 [2] [µM] | IC50 [3] [µM] | IC50 [4] [µM] | inhibition at 50 µM [2] [%] |
| --- | --- | --- | --- | --- | --- |
| CC(C)[C@H](Nc1nc(-c2n[nH]c3ncc(F)cc23)ncc1F)C(=O)NCc1cc(=O)c(O)c2n1CCN(C(C)C)C2=O | 10 | > 50 | 8.04 |  |  |
| CCC(Nc1nc(-c2n[nH]c3ncc(F)cc23)ncc1F)C(=O)NCc1cc(=O)c(O)c2n1CCN(C(C)C)C2=O (stereo not shown) |  | > 50 | 12.2 |  |  |
| CC(C)N1CCn2c(CNC(=O)CCCCCNc3nc(-c4n[nH]c5ncc(F)cc45)ncc3F)cc(=O)c(O)c2C1=O | 0.42 | 15 | 19.7 |  |  |
| CC(C)N1CCn2c(CNC(=O)CC(Nc3nc(-c4n[nH]c5ncc(F)cc45)ncc3F)C3CC3)cc(=O)c(O)c2C1=O (stereo not shown) | 8.16 | 48 | 19.7 |  |  |
| CC(C)N1CCn2c(CNC(=O)c3c[nH]c4ncc(C5CC5)nc34)cc(=O)c(O)c2C1=O | 12.8 | > 25 | 0.87 |  |  |
| CC(C)N1CCn2c(COC(=O)c3c[nH]c4ncc(C5CC5)nc34)cc(=O)c(O)c2C1=O | 9.3 | 68.7 | 0.49 |  |  |
| CC(C)[C@H](NC(=O)c1c[nH]c2ncc(C3CC3)nc12)C(=O)NCc1cc(=O)c(O)c2n1CCN(C(C)C)C2=O | 16.8 | 42 | 0.75 |  |  |
| CC(C)N1CCn2c(CNC(=O)CCCCCNC(=O)c3c[nH]c4ncc(C5CC5)nc34)cc(=O)c(O)c2C1=O | 6.36 | 31.8 | 0.57 |  |  |
| CC(C)N1CCn2c(CNC(=O)CNC(=O)c3c[nH]c4ncc(C5CC5)nc34)cc(=O)c(O)c2C1=O | 3.96 | > 50 | 0.27 |  |  |
| CC(C)N1CCn2c(CNC(=O)[C@H]3CCC[C@@H](Nc4nc(-c5n[nH]c6ncc(F)cc56)ncc4F)C3)cc(=O)c(O)c2C1=O |  | 15.1 | > 25 |  |  |
| CCC(NC(=O)c1c[nH]c2ncc(C3CC3)nc12)C(=O)NCc1cc(=O)c(O)c2n1CCN(C(C)C)C2=O (stereo not shown) |  | > 50 | 0.46 |  |  |
| CC(C)N1CCn2c(CNC(=O)[C@H](NC(=O)c3c[nH]c4ncc(C5CC5)nc34)c3ccccc3)cc(=O)c(O)c2C1=O |  | 8.2 | 2.34 |  |  |
| CC(C)N1CCn2c(CNC(=O)C3(NC(=O)c4c[nH]c5ncc(C6CC6)nc45)CCCCC3)cc(=O)c(O)c2C1=O |  | > 50 |  | 0.38 |  |
| CC(C)[C@H](Nc1nc(C2=CN3C(=O)N=NC3C=C2)ncc1F)C(=O)NCc1cc(=O)c(O)c2n1CCN(C(C)C)C2=O (stereo partly shown) |  | > 50 |  | > 50 |  |
| CC(C)N1CCn2c(CNC(=O)CCCCCNc3nc(C4=CN5C(=O)N=NC5C=C4)ncc3F)cc(=O)c(O)c2C1=O (stereo not shown) |  | > 25 |  | 5.35 |  |
| CC(C)[C@@H](CC(=O)NCc1cc(=O)c(O)c2n1CCN(C(C)C)C2=O)Nc1nc(C2=CN3C(=O)N=NC3C=C2)ncc1F (stereo partly shown) |  | > 1.28 |  | 8.15 |  |
| CC(C)N1CCn2c(CNC(=O)C[C@H](NC(=O)c3c[nH]c4ncc(C5CC5)nc34)c3ccccc3)cc(=O)c(O)c2C1=O |  | > 33.7 |  | 1.53 |  |
| CC(C)N1CCn2c(CNC(=O)[C@H](NC(=O)c3c[nH]c4ncc(C5CC5)nc34)C3CC3)cc(=O)c(O)c2C1=O |  |  |  | 0.22 | 47 |
| CC(C)N1CCn2c(CNC(=O)CC(NC(=O)c3c[nH]c4ncc(C5CC5)nc34)C3CC3)cc(=O)c(O)c2C1=O (stereo not shown) |  |  |  | 0.14 | 10 |
| CC(C)N1CCn2c(CNC(=O)c3cccc(NC(=O)c4n[nH]c5ncccc45)c3)cc(=O)c(O)c2C1=O [drawing 28] | 26.3 | > 50 | 1.51 |  |  |
| CC(C)N1CCn2c(CNC(=O)c3cccc(NC(=O)c4n[nH]c5ncccc45)c3)cc(=O)c(O)c2C1=O [drawing 29] | 19.6 |  | 1.22 |  |  |
